For 47 molecules, Ki and inhibition results are on record in patent publication US20050009840A1 (SUGEN, INC., priority 2003, published 2005).

The first experiment deals with T1, HGFR (Homo sapiens, UniProt P08581).
T1 construct: purchased Upstate 14-526
T1 sequence (P08581 974-1390 limits assumed): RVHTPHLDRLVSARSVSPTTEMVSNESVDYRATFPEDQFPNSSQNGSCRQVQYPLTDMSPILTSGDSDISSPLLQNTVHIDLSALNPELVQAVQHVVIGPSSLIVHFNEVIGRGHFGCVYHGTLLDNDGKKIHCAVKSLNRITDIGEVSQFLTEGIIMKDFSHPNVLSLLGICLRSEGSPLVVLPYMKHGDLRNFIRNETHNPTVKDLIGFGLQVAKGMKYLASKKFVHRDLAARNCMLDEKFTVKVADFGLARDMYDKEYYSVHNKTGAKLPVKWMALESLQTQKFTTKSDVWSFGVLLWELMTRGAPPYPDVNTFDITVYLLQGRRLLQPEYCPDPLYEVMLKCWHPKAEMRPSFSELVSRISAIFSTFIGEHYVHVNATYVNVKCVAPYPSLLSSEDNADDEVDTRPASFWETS
In words: HGFR continuous-coupled spectrophotometric assay. It counts as biochemical. The following applies: Table 3, column 'Ki (μM) or I (%)': cells without % sign; read-out: Ki.
The term Ki denotes the dissociation constant of the complex between target and ligand, obtained from inhibition or displacement. “(4-{6-Amino-5-[1-(2,6- dichloro-3-fluoro-phenyl)- ethoxy]-pyridin-3-yl}- phenyl)-(4-ethyl-piperizin- 1-yl)-methanone [Example I-633]”: the Ki was found to be 0.0472 µM.

Staying with this experiment, now noted: at 1 pM; Table 6, library procedure 41; read-out: % Inhibition (percent c-MET inhibition).
For orientation: inhibition means how much of the control response was suppressed. On to `Nc1ncc(C(=O)N2CCNC(=O)C2)cc1OCc1c(Cl)cccc1Cl` [Example L-307], for which the inhibition at 1 pM came to 22%.
The same measure, in the same setting: the result for `Nc1ncc(C(=O)NCc2c(F)cccc2C(F)(F)F)cc1OCc1c(Cl)cccc1Cl` [Example L-308] reads 33%; that for `Nc1ncc(C(=O)N2CCCC(F)(F)C2)cc1OCc1c(Cl)cccc1Cl` [Example L-309], 16%; that for `Nc1ncc(C(=O)NCc2ccc[nH]c2=O)cc1OCc1c(Cl)cccc1Cl` [Example L-310], 16%.
On the same count and under the same terms, to `Cc1ccc2c(c1)C(NC(=O)c1cnc(N)c(OCc3c(Cl)cccc3Cl)c1)CCO2` [Example L-311] belongs 17%.
The same measure, in the same setting: to `CCN1CCCC(NC(=O)c2cnc(N)c(OCc3c(Cl)cccc3Cl)c2)C1` [Example L-312] belongs 19%; to `Nc1ncc(C(=O)N2CCC(COCc3ccccc3F)CC2)cc1OCc1c(Cl)cccc1Cl` [Example L-313], 10%.
With `Nc1ncc(C(=O)NCCC2CCC(=O)N2CCc2ccc(O)cc2)cc1OCc1c(Cl)cccc1Cl` [Example L-314], the inhibition at 1 pM stood at 16%.
On to `Nc1ncc(C(=O)N2CCC(Cc3cnccn3)CC2)cc1OCc1c(Cl)cccc1Cl` [Example L-315], for which the inhibition at 1 pM stood at 72%.
For the molecule `Nc1ncc(C(=O)N2CCC(Cc3cccc(CO)c3)CC2)cc1OCc1c(Cl)cccc1Cl` [Example L-316], the inhibition at 1 pM is 11%.
The same measure, in the same setting: the result for `NC(=O)c1ccc(CC2CCN(C(=O)c3cnc(N)c(OCc4c(Cl)cccc4Cl)c3)CC2)cc1` [Example L-317] reads 12%.
On the same count and under the same terms, to `Nc1ncc(C(=O)N2CCC3(CC2)CC(N2CCNC(=O)C2)CO3)cc1OCc1c(Cl)cccc1Cl` [Example L-318] belongs 17%; to `CCN(CC)CC1(O)CCN(C(=O)c2cnc(N)c(OCc3c(Cl)cccc3Cl)c2)CC1` [Example L-319], 71%; to `Nc1ncc(C(=O)N2CCC3(CC2)CC(N2CCC(O)CC2)CO3)cc1OCc1c(Cl)cccc1Cl` [Example L-320], 28%.
Turning to `CN(CCC1CCC(=O)N1CC(F)(F)F)C(=O)c1cnc(N)c(OCc2c(Cl)cccc2Cl)c1` [Example L-321], the inhibition at 1 pM was found to be 25%.
On the same count and under the same terms, the result for `Nc1ncc(C(=O)N2CCC(O)(CCc3ccncc3)CC2)cc1OCc1c(Cl)cccc1Cl` [Example L-322] reads 25%; that for `Nc1ncc(C(=O)NCc2noc(C(=O)N3CCC(CO)CC3)n2)cc1OCc1c(Cl)cccc1Cl` [Example L-323], 26%.
The same measure, in the same setting: the result for `Nc1ncc(C(=O)N2CCCC(Cc3ncccn3)C2)cc1OCc1c(Cl)cccc1Cl` [Example L-324] reads 25%.
The same measure, in the same setting: to `Nc1ncc(C(=O)N2CCC3(CC2)CC3C(=O)N2CCCCC2)cc1OCc1c(Cl)cccc1Cl` [Example L-325] belongs 26%; to `Cc1noc([C@H]2CC[C@H](CNC(=O)c3cnc(N)c(OCc4c(Cl)cccc4Cl)c3)CC2)n1` [Example L-326], 3%; to `Nc1ncc(C(=O)NCc2noc(C(=O)N3CC[C@H](O)C3)n2)cc1OCc1c(Cl)cccc1Cl` [Example L-327], 26%.
`Nc1ncc(C(=O)N2CCc3nnc(CCN4CCOCC4)n3CC2)cc1OCc1c(Cl)cccc1Cl` [Example L-328]: the inhibition at 1 pM was 27%.
Consider `C=C(Cl)/C(=C/O)COc1cc(C(=O)NC2COC3(CCN(Cc4[nH]cnc4C)CC3)C2)cnc1N` [Example L-329], for which the inhibition at 1 pM turned out to be 30%.
Consider `CCC(CC)CN1CCC2(CC1)CC(NC(=O)c1cnc(N)c(OCc3c(Cl)cccc3Cl)c1)CO2` [Example L-330], for which the inhibition at 1 pM turned out to be 74%.
The same measure, in the same setting: to `COCC1CN(CC(N)=O)CCN(C(=O)c2cnc(N)c(OCc3c(Cl)cccc3Cl)c2)C1` [Example L-331] belongs 23%.
Still for that read-out and setting: to `Nc1ncc(C(=O)NC2COC3(CCN(c4ncccn4)CC3)C2)cc1OCc1c(Cl)cccc1Cl` [Example L-332] belongs 21%.
Still for that read-out and setting: the result for `Cc1nc(CCNC(=O)c2cnc(N)c(OCc3c(Cl)cccc3Cl)c2)cs1` [Example L-333] reads 23%.
`CCCN(CCO)C1CCCN(C(=O)c2cnc(N)c(OCc3c(Cl)cccc3Cl)c2)CC1` [Example L-334]: the inhibition at 1 pM came out at 17%.
On the same count and under the same terms, the result for `Nc1ncc(C(=O)N2CCCC(N3CCOCC3)CC2)cc1OCc1c(Cl)cccc1Cl` [Example L-335] reads 18%.
For the molecule `Nc1ncc(C(=O)NC2COC3(CCN(Cc4ccncc4)CC3)C2)cc1OCc1c(Cl)cccc1Cl` [Example L-336], the inhibition at 1 pM worked out at 20%.
In the case of `Nc1ncc(C(=O)N2CCC(O)(CN3CCCC3=O)C2)cc1OCc1c(Cl)cccc1Cl` [Example L-337], the inhibition at 1 pM is 20%.
Still for that read-out and setting: the result for `CC(C)CCNC(=O)C1CC12CCN(C(=O)c1cnc(N)c(OCc3c(Cl)cccc3Cl)c1)CC2` [Example L-338] reads 21%; that for `CN(CCc1ccccn1)CC1(O)CCN(C(=O)c2cnc(N)c(OCc3c(Cl)cccc3Cl)c2)C1` [Example L-339], 18%; that for `Cc1cc(CCC2CC3(CCN(C(=O)c4cnc(N)c(OCc5c(Cl)cccc5Cl)c4)CC3)CO2)no1` [Example L-340], 19%.
Still for that read-out and setting: the result for `Nc1ncc(C(=O)N2CCCC(N3CCC(CO)CC3)CC2)cc1OCc1c(Cl)cccc1Cl` [Example L-341] reads 20%.
The same measure, in the same setting: to `Nc1ncc(C(=O)N2CCCC(O)(COc3cccc(F)c3)C2)cc1OCc1c(Cl)cccc1Cl` [Example L-342] belongs 36%; to `Nc1ncc(C(=O)N2CCC3(CC2)COC(CCc2ccnnc2)C3)cc1OCc1c(Cl)cccc1Cl` [Example L-343], 37%.
Take `CCc1ccc(COCC2CCN(C(=O)c3cnc(N)c(OCc4c(Cl)cccc4Cl)c3)CC2)nc1` [Example L-344]: the inhibition at 1 pM turned out to be 41%.
Regarding `Cc1ccn2cc(CNC(=O)c3cnc(N)c(OCc4c(Cl)cccc4Cl)c3)nc2n1` [Example L-345], the inhibition at 1 pM was 45%.
`Nc1ncc(C(=O)N2CCn3c(CO)nnc3C2)cc1OCc1c(Cl)cccc1Cl` [Example L-346]: the inhibition at 1 pM was found to be 31%.
On the same count and under the same terms, the result for `Cc1ccc2nc(CNC(=O)c3cnc(N)c(OCc4c(Cl)cccc4Cl)c3)cn2c1` [Example L-347] reads 38%; that for `Nc1ncc(C(=O)N2CCC(COc3cccc4cccnc34)C2)cc1OCc1c(Cl)cccc1Cl` [Example L-348], 35%; that for `Nc1ncc(C(=O)N2CCC3(CC2)CC3C(=O)NCC2CC2)cc1OCc1c(Cl)cccc1Cl` [Example L-349], 32%.
On the same count and under the same terms, the result for `Nc1ncc(C(=O)N2CCC3(CC2)COC(CCc2cc(O)n[nH]2)C3)cc1OCc1c(Cl)cccc1Cl` [Example L-350] reads 34%; that for `Cn1ccnc1SCC1(O)CCCN(C(=O)c2cnc(N)c(OCc3c(Cl)cccc3Cl)c2)CC1` [Example L-351], 35%.
Same read-out and setting: the result for `CC(C)CNC(=O)c1ccc(Cl)c(CNC(=O)c2cnc(N)c(OCc3c(Cl)cccc3Cl)c2)c1` [Example L-352] reads 47%.
